# Measured values published in PMC5462475, “A conformational switch high-throughput screening assay and allosteric inhibition of the flavivirus NS2B-NS3 protease” (PLoS Pathogens, 2017).
# “Also recorded” adds a separate entry of the source. Like-named read-outs stand apart in the source and are kept apart here.
# Assays:
# N2CN3N A125C mutant = target: T1, N2CN3N A125C mutant (UniProt P08659+P14340); assay type: biochemical
# T1 construct: pairs of primers of 1394F and 1440C for NS2B and 1476F and 1660C for NS3; made in house; host or cells: Escherichia coli Rosetta 2(DE3)
# [1] = target: T2, DENV2 NS2B-CLuc-NS3-119-NLuc-NS3 120-to-NS3_C (N2CN3N) (UniProt P08659+P14340); assay type: biochemical; conditions: for suppression of NPGB-induced SLC enhancement / effect of compound alone on background SLC: compound 40 μM; for suppression of NPGB-induced SLC enhancement: N2CN3N 150 nM; for effect of compound alone on background SLC: no NPGB, compared to DMSO; for inhibition of NPGB-induced SLC enhancement, concentration series: serial dilution of compound
# T2 construct: pairs of primers of 1394F and 1440C for NS2B and 1476F and 1660C for NS3; made in house; host or cells: Escherichia coli Rosetta 2(DE3)
# [2] = target: T3, full-length firefly luciferase (FLuc) (Photinus pyralis, UniProt P08659); assay type: biochemical; conditions: FLuc 150 nM, compound 30 μM
# T3 construct: or full length Firefly luciferase (150 nM final concentration)
# [3] = target: T4, DENV2 NS2B-NS3 N152A mutant (Dengue virus type 2, UniProt P14340, N1627A); assay type: binding
# WNV [4] = assay: microbe, parasite or virus in culture; conditions: West Nile virus, A549, 48 h, read-out: EC50, WNV viral reduction
# ZIKV [5] = assay: microbe, parasite or virus in culture; assay type: cell-based; conditions: hNPCs, MOI 2
# DENV2 [6] = conditions: for DENV2 viral production (titer) relative to DMSO control: compound at 1, 10 and 100 μM, 48 h post-infection
# DENV2 [7] = assay: microbe, parasite or virus in culture; conditions: Dengue virus, A549, 48 h, read-out: EC50, DENV2 viral reduction
# [8] = target: T5, DENV2 NS2B-NS3 V154A mutant (Dengue virus type 2, UniProt P14340, V1629A); assay type: binding
# ZIKV [9] = conditions: A549 cells
# [10] = target: T6, DENV2 NS2B-NS3 I123A mutant (Dengue virus type 2, UniProt P14340, I1598A); assay type: biochemical; conditions: compound 6 μM, protein 150 nM, vs DMSO
# WNV [11] = test system: WNV
# [12] = target: T5, DENV2 NS2B-NS3 V154A mutant; assay type: biochemical; conditions: compound 6 μM, protein 150 nM, vs DMSO
# [13] = target: T7, DENV2 NS2B-NS3 K74A mutant (Dengue virus type 2, UniProt P14340, K1549A); assay type: biochemical; conditions: compound 6 μM, protein 150 nM, vs DMSO
# [14] = target: T4, DENV2 NS2B-NS3 N152A mutant; assay type: biochemical; conditions: compound 6 μM, protein 150 nM, vs DMSO
# ZIKV [15] = assay: microbe, parasite or virus in culture; assay type: cell-based; conditions: HPECs, MOI 2
# [16] = target: T6, DENV2 NS2B-NS3 I123A mutant; assay type: binding
# in vitro = conditions: human
# [17] = target: T7, DENV2 NS2B-NS3 K74A mutant; assay type: binding
# YFV [18] = assay: microbe, parasite or virus in culture; conditions: Yellow fever virus, A549, 48 h, read-out: EC50, YFV viral reduction
# YFV [19] = test system: YFV
# [20] = test system: ZIKV NS3 / polyprotein precursor; assay: Western blot of ZIKV NS3 expression and polyprotein processing in infected A549 cells
# ZIKV [21] = assay: microbe, parasite or virus in culture; conditions: Zika virus, A549, 48 h, read-out: EC50, ZIKV viral reduction
# [22] = target: T8, unlinked ZIKV NS2B/NS3 protease (Zika virus, UniProt A0A024B7W1); assay: ZIKV unlinked NS2B/NS3 protease inhibition assay; assay type: biochemical; conditions: protease 150 nM
# T8 construct: The construct contains the NS2B residues 49–95 and the NS3 residues 1–185; made in house; host or cells: E. coli (Rosetta 2(DE3))
# Excerpt: As flavivirus NS3 is highly conserved (Fig 3C), it is possible that the inhibitors identified are broad spectrum flavivirus inhibitors. We therefore investigated whether NSC135618 is effective against other flaviviruses. Because ZIKV treatment currently has the most urgent need, we evaluated the efficacy of the compound on ZIKV. To this end, we first constructed an unlinked NS2B/NS3 heterocomplex of ZIKV in the pET28a vector by engineering a 3C protease cleavage site within the GGGSGGGG linker region between NS2B and NS3. The NS2B/NS3 protease was first expressed as a His-tagged covalently linked single chain protein in E coli. The unlinked ZIKV NS2B/NS3 protease complex was generated by on-column digestion with thrombin and 3C proteases, followed by gel filtration chromatography.
# Fig 7 Inhibition of the ZIKV protease activity, viral titer, protein expression, and viral RNA replication by NSC135618. […] ST, molecular weight (MW) standard. (B) Dose response inhibition of the unlinked ZIKV NS2B-NS3 protease by NSC135618. The NS2b/NS3 protease was at 150 nM. N = 3. (C) Dose-dependent inhibition of ZIKV by NSC135618 in A549 cells. Viral plaque reduction assay was used. N = 3. (D) Immunofluorescence assay (IFA) of inhibition of viral protein expression for ZIKV-infected A549 cells by NSC135618, using pan flavivirus anti-E antibody 4G2. […]
# unlinked DENV2 NS2B/NS3 = target: T9, unlinked DENV2 NS2B/NS3 (Dengue virus type 2, UniProt P14340); assay: Protein thermal shift assay (PTSA), unlinked DENV2 NS2B/NS3; assay type: binding; conditions: unlinked NS2B/NS3 2.5 μM, compound 4.8 μM
# T9 construct: pairs of primers of 1394F and 1440C for NS2B and 1476F and 1660C for NS3; made in house; host or cells: Escherichia coli Rosetta 2(DE3)
# Excerpt: N = 3. […] N = 3. […] PP, ZIKV polyprotein precursor. **, p<0.05.
# N2CN3N A125W mutant = target: T10, N2CN3N A125W mutant (UniProt P08659+P14340); assay type: biochemical; conditions: A125W mutant 150 nM, NPGB 30 μM
# T10 construct: pairs of primers of 1394F and 1440C for NS2B and 1476F and 1660C for NS3; made in house; host or cells: Escherichia coli Rosetta 2(DE3)
# [23] = protein 2.5 μM, compound 4.8 μM
# T2 sequence (P08659 whole entry, looked up, other chains not shown): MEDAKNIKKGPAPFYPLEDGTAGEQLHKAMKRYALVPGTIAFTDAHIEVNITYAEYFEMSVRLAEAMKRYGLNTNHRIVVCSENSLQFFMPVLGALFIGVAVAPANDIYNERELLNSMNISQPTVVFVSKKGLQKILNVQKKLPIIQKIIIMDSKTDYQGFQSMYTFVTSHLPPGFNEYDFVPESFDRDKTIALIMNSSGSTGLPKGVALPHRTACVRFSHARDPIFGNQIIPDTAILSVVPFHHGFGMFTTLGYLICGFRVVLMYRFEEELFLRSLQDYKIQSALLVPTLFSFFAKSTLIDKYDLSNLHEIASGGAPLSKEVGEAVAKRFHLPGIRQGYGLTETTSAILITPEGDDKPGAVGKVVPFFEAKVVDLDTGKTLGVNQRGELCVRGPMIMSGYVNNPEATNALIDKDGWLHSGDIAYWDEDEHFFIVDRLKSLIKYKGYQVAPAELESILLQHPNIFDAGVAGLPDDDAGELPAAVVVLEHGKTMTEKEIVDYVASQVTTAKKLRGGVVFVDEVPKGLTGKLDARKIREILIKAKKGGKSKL
# T3 sequence (P08659 whole entry): as the sequence (P08659 whole entry, looked up, other chains not shown) above
molecule,measurement,setting,value
"O=C(O)c1cc(SSc2ccc([N+](=O)[O-])c(C(=O)O)c2)ccc1[N+](=O)[O-] [DTNB, 5,5'-dithio-bis-[2-nitrobenzoic acid]]",effect on baseline SLC signal of A125C mutant,N2CN3N A125C mutant; DTNB 30 μM alone,only slightly decreased the baseline SLC signal
same,effect on NPGB-triggered SLC enhancement of A125C mutant,N2CN3N A125C mutant; DTNB 30 μM with NPGB 30 μM,completely abolished the SLC enhancement
same,effect on NPGB-triggered SLC enhancement of WT N2CN3N,[1],significantly abolished the active site inhibitor NPGB-triggered SLC enhancement
same,effect on luciferase (baseline SLC) activity of WT N2CN3N,[1],did not significantly affect the luciferase activity
same,effect on luciferase activity of full-length FLuc,[2],do not affect the luciferase activity; also recorded: did not significantly affect the luciferase activity
O=C1C=CC(=NNc2ccc([N+](=O)[O-])cc2Cl)C=C1C(=O)Nc1cccc(Cl)c1 [NSC135618],Tm (N152A),[3]; Fig 10D,53.63 °C
same,ΔTm (N152A),[3]; [23],0.55 °C
same,EC50,WNV [4],1270 nM
same,EC50,"ZIKV [5]; Zika virus, read-out: EC50, ZIKV inhibition in hNPCs",1900 nM
same,ZIKV RNA replication (qRT-PCR),ZIKV [5],considerably reduce
same,ZIKV protein expression (IFA),ZIKV [5],considerably reduce
same,reduction of ZIKV titers,ZIKV [5],considerably reduce ZIKV titers
same,DENV2 viral RNA copy numbers (qRT-PCR),DENV2 [6]; A549 cells,greatly reduced viral RNA copy numbers in a dose dependent manner
same,"EC50, DENV2 viral reduction","DENV2 [6]; A549 cells, MOI 0.1, 48 h",low micromolar range
same,DENV2 viral production (titer) relative to DMSO control,DENV2 [6]; A549 cells,significantly reduced
same,"TI (therapeutic index, CC50/EC50)","DENV2 [6]; DENV2, A549 cells",60
same,EC50,DENV2 [7],810 nM
same,Tm (V154A),[8]; Fig 10D,52.09 °C
same,ΔTm (V154A),[8]; [23],1.75 °C
same,"ZIKV viral protein expression (IFA, anti-E antibody 4G2)",ZIKV [9],greatly reduced viral protein expression
same,"EC50, ZIKV viral reduction","ZIKV [9]; MOI 0.1, 48 h",low micromolar range
same,ZIKV viral RNA copy numbers (qRT-PCR),ZIKV [9]; supernatant,greatly reduced
same,"TI (therapeutic index, CC50/EC50)",ZIKV [9]; ZIKV,49
same,inhibition of protease activity of I123A mutant,[10],retains its inhibition activity
same,"TI (therapeutic index, CC50/EC50)",WNV [11],38
same,"EC50, WNV viral reduction","WNV [11]; A549 cells, MOI 0.1, 48 h",low micromolar range
same,inhibition of protease activity of V154A mutant,[12],slightly reduced the inhibition activity
same,suppression of NPGB-induced SLC enhancement,[1]; NPGB 30 μM,abolish the SLC enhancement induced by NPGB to the background level
same,effect of compound alone on background SLC,[1],did not have significant effect on background SLC
same,"inhibition of NPGB-induced SLC enhancement, concentration series",[1]; NPGB 30 μM,significantly suppressed the SLC enhancement; also recorded: clearly inhibited the NPGB-induced SLC enhancement in a dose dependent manner
same,inhibition of protease activity of K74A mutant,[13],retains its inhibition activity
same,inhibition of protease activity of N152A mutant,[14],completely abolished the inhibition activity
same,ZIKV RNA replication (qRT-PCR),ZIKV [15],drastically decreased ZIKV RNA replication
same,ZIKV protein expression (IFA),ZIKV [15],drastically decreased
same,inhibition of ZIKV (titer),ZIKV [15],effectively inhibited ZIKV in HPECs in a dose-dependent manner
same,EC50,"ZIKV [15]; Zika virus, Epithelial cell, read-out: EC50, ZIKV inhibition in HPECs",1000 nM
same,Tm (I123A),[16]; Fig 10D,44.34 °C
same,ΔTm (I123A),[16]; [23],2.69 °C
same,CC50,in vitro,48800 nM
same,Tm (K74A),[17]; Fig 10D,42.19 °C
same,ΔTm (K74A),[17]; [23],2.48 °C
same,EC50,YFV [18],280 nM
same,"EC50, YFV viral reduction",YFV [19],low micromolar range
same,"TI (therapeutic index, CC50/EC50)",YFV [19],174
same,"unprocessed viral polyprotein precursor (high MW band, Western blot)",[20]; 0.19 μM to 3 μM,accumulation of high molecular weight (MW) protein
same,"ZIKV NS3 expression (Western blot, normalized to GAPDH)","[20]; 0.75 μM to 6 μM, 48 h",significant inhibition of ZIKV NS3 expression
same,viral protein expression (Western blot),[20]; 6 μM,nearly completely suppressed viral protein expression
same,EC50,ZIKV [21],1000 nM
same,IC50,[22],380 nM
same,increase of melting temperature (ΔTm) vs DMSO,unlinked DENV2 NS2B/NS3,4.8 °C
O=C(Nc1ccc(Nc2ccncc2)cc1)c1ccc(Nc2ccnc3ccc([N+](=O)[O-])cc23)cc1 [NSC146771],DENV2 viral production (titer) relative to DMSO control,DENV2 [6]; A549 cells,no appreciable effect; also recorded: did not show any inhibition
same,EC50,DENV2 [7],> 100000 nM
same,suppression of NPGB-induced SLC enhancement,[1]; NPGB 30 μM,abolish the SLC enhancement induced by NPGB to the background level
same,effect of compound alone on background SLC,[1],did not have significant effect on background SLC
same,"inhibition of NPGB-induced SLC enhancement, concentration series",[1]; NPGB 30 μM,did not inhibit the NPGB-induced SLC enhancement until very high concentration
same,CC50,in vitro,82000 nM
Cn1ccc(=Nc2ccc(NC(=O)c3ccc(N=c4ccn(C)c5ccc([N+](=O)[O-])cc45)cc3)cc2)cc1 [NSC260594],DENV2 viral production (titer) relative to DMSO control,DENV2 [6]; A549 cells,significantly reduced
same,EC50,DENV2 [7],13500 nM
same,suppression of NPGB-induced SLC enhancement,[1]; NPGB 30 μM,abolish the SLC enhancement induced by NPGB to the background level
same,effect of compound alone on background SLC,[1],did not have significant effect on background SLC
same,"inhibition of NPGB-induced SLC enhancement, concentration series",[1]; NPGB 30 μM,did not inhibit the NPGB-induced SLC enhancement until very high concentration
same,CC50,in vitro,> 500000 nM
Nitrophenyl p-guanidinobenzoate [NPGB],SLC enhancement compared to DMSO control,"N2CN3N A125C mutant; A125C mutant 150 nM, NPGB 30 μM",2.2 fold
same,SLC enhancement compared to DMSO control,"[1]; WT N2CN3N 150 nM, NPGB 30 μM",4.2 fold
same,effect on luciferase activity of full-length FLuc,[2],do not affect the luciferase activity; also recorded: did not have any effects
same,SLC enhancement upon addition of active-site inhibitor,N2CN3N A125W mutant,SLC enhancement was not observed
